Experimental data published in the NIST ThermoML archive (doi:10.1016/j.jct.2017.03.002).

Experiments:
[1] = for surface tension liquid-gas: Capillary rise; for vapor or sublimation pressure: Closed cell (Static) method
[2] = xn = mol fraction of the nth substance listed; details: Capillary rise

CCC [propane]
[1]
Details	surface tension liquid-gas [mN/m]
270.51 K	10.4
271.77 K	10.3
280.13 K	9.28
285.35 K	8.37
287.35 K	8.37
289.65 K	8.09
291.75 K	7.78
297.98 K	7.12
300.92 K	6.57
303.37 K	6.48
314.06 K	4.99

[1], Liquid
Details	vapor or sublimation pressure [kPa]
270.51 K	437.5
271.77 K	456
280.13 K	583.7
285.35 K	680.6
287.35 K	715.4
289.65 K	762.1
291.75 K	806.2
297.98 K	948.2
300.92 K	1021.2
303.37 K	1083.1
314.06 K	1398

CCC [propane] + C
[2], x2 = 0
Details	surface tension liquid-gas [mN/m]
271.77 K	10.3
285.35 K	8.37
303.37 K	6.48

C [methane] + CCC
[2]
Details	surface tension liquid-gas [mN/m]
272.08 K, x1 = 0.139	7.06
272.1 K, x1 = 0.45	1.71
272.14 K, x1 = 0.0508	9.38
272.24 K, x1 = 0.105	7.99
272.25 K, x1 = 0.32	3.54
272.28 K, x1 = 0.493	1.36
272.29 K, x1 = 0.265	4.85
272.33 K, x1 = 0.391	2.63
272.34 K, x1 = 0.206	5.99
272.35 K, x1 = 0.554	0.51
285.35 K, x1 = 0.0217	7.89
285.37 K, x1 = 0.0609	7.13
285.39 K, x1 = 0.398	1.57
285.5 K, x1 = 0.323	2.35
285.5 K, x1 = 0.525	0.34
285.55 K, x1 = 0.279	3.1
285.55 K, x1 = 0.474	0.76
285.65 K, x1 = 0.165	5.02
285.76 K, x1 = 0.122	6.1
303.15 K, x1 = 0.117	4.12
303.35 K, x1 = 0.318	1.27
303.37 K, x1 = 0.389	0.62
303.37 K, x1 = 0.433	0.27
303.45 K, x1 = 0.201	2.99

CC [ethane]
[1]
Details	surface tension liquid-gas [mN/m]
274.62 K	2.95
279.17 K	2.4
283.79 K	1.85
291.25 K	1.05
293.15 K	0.95
294.16 K	0.91
295.04 K	0.81
297.18 K	0.62
299.13 K	0.43
301.25 K	0.27
303.1 K	0.13

[1]
Details	Critical pressure [kPa]	Critical temperature [K]	vapor or sublimation pressure [kPa]
274.62 K, Liquid	–	–	2472.5
279.17 K, Liquid	–	–	2753.2
283.79 K, Liquid	–	–	3060.9
291.25 K, Liquid	–	–	3615.2
293.15 K, Liquid	–	–	3764.3
294.16 K, Liquid	–	–	3848
295.04 K, Liquid	–	–	3919.9
297.18 K, Liquid	–	–	4105.5
299.13 K, Liquid	–	–	4277.5
301.25 K, Liquid	–	–	4471.9
303.1 K, Liquid	–	–	4650.3
304.95 K, Liquid	–	–	4832.5
Liquid, Direct measurement	4870	–	–
Liquid, Visual observation in a stirred cell	–	305.39	–
